Results published in patent US11590129B2, “Combination therapy with an antitumor alkaloid” (PHARMA MAR, S.A., priority 2010, dated 2023).
Where two headings read alike, the source gives them in different places.

How the values were obtained:
[1] = tested on: A673 human rhabdomyosarcoma cell line; assay: cells; details: Homo sapiens, A673, 72 h
Method: (§1) a. […] Briefly, cells were harvested and seeded in 96 well microtiter plates at a density of 5,000 cells in 150 μL of culture medium and incubated for 24 hours in drug-free medium before treatment with vehicle alone or test compounds for 72 h.
(§2) The cytotoxic effect was measured by the MTT reduction assay, in which 3-(4,5-Dimethylthiazol-2-yl)-2,5-diphenyltetrazolium bromide, a tetrazole, which is reduced to purple formazan in the mitochondria of living cells, was used. MTT (50 μL of 1 mg/mL stock solution) was added to the wells and incubated for 8 hours at 37° C. until formazan crystals were formed. After gently removing the culture medium, DMSO was added to dissolve the insoluble purple formazan product into a colored solution. […] Results were expressed as percentage of control cell growth.
(§3) b. In a second set of assays, A549 human tumor cells were incubated with PM01183 in combination with each of the agents mentioned above.
(§4) As a visual aid, response values were plotted on a scatter plot with dose ratios given on the x-axis and % response values on the y-axis. […] In cases where response values at the two endpoints were approximately equivalent, points lying above or below this predicted line of additivity could be interpreted as representing antagonistic or synergistic drug interaction, respectively.
(§5) Additional serial dilutions were prepared in serum-free culture medium to achieve a final 4× concentration. Aliquots of 50 μL of each diluted compound were added per well.
A673 was the human rhabdomyosarcoma cell line selected for this assay.

[2] = tested on: U87-MG human glioblastoma cell line; assay: cells; details: Homo sapiens, U-87 MG, 72 h
Method: as §1, §2, §3, §4, §5
U87-MG was the human glioblastoma cell line selected for this assay.

[3] = tested on: HT-29 human colon adenocarcinoma cell line; assay: cells; details: Homo sapiens, HT-29, 72 h
Method: as §1, §2, §3, §4, §5
HT-29 was the human colon adenocarcinoma cell line selected for this assay.

[4] = tested on: PANC-1 human pancreatic carcinoma cell line; assay: cells; details: Homo sapiens, PANC-1, 72 h
Method: as §1, §2, §3, §4, §5
PANC-1 was the human pancreatic carcinoma cell line selected for this assay.

[5] = tested on: A549 human lung carcinoma cell line; assay: MTT cytotoxicity assay in A549 cells: IC50 of single agents and combinations with PM01183; format: cell-based; details: Homo sapiens
Method: as §5
A549 was the human lung carcinoma cell line selected for this assay.
as §1, §2, §3, §4

[6] = tested on: RXF-393 human kidney carcinoma cell line; assay: cells; details: Homo sapiens, RXF 393, 72 h
Method: as §1, §2, §3, §4, §5

[7] = tested on: MDA-MB-231 human breast adenocarcinoma cell line; assay: cells; details: Homo sapiens, MDA-MB-231, 72 h
Method: as §1, §2, §3, §4, §5

[8] = tested on: PC-3 human prostate cancer cell line; assay: cells; details: Homo sapiens, PC-3, 72 h
Method: as §1, §2, §3, §4, §5
PC-3 was the human prostate adenocarcinome cell line selected for this assay.

[9] = tested on: HGC-27 human gastric carcinoma cell line; assay: cells; details: Homo sapiens, HGC-27, 72 h
Method: as §1, §2, §3, §4, §5
HGC-27 was the human gastric carcinoma cell line selected for this assay.

[10] = tested on: HepG2 human hepatocellular liver carcinoma cell line; assay: MTT cytotoxicity assay in HepG2 cells: IC50 of single agents and combinations with PM01183; format: cell-based; details: Homo sapiens, HepG2, 72 h
Method: as §1, §2, §3, §4, §5
HepG2 was the human hepatocellular liver carcinoma cell line selected for this assay.

[11] = tested on: SK-MEL-2 human melanoma cell line; assay: cells; details: Homo sapiens, SK-MEL-2, 72 h
Method: as §1, §2, §3, §4, §5
SK-MEL-2 was the human melanoma cell line selected for this assay.

[12] = tested on: IGROV-1 human ovarian adenocarcinoma cell line; assay: cells; details: Homo sapiens, IGROV-1, 72 h
Method: as §1, §2, §3, §4, §5
IGROV-1 was the human ovarian adenocarcinoma cell line selected for this assay.

SMILES	IC50 [1]	IC50 [2]	IC50 [3]	IC50 [4]	IC50 ([5]; A549, 72 h)	IC50 [6]	IC50 [7]	IC50 [8]	IC50 [9]	IC50 [10]	IC50 [11]	IC50 [12]	IC50 ([5]; A549, 72 hours drug exposure, MTT, read-out: IC50)
COc1cc([C@@H]2c3cc4c(cc3[C@@H](O[C@@H]3O[C@@H]5CO[C@@H](C)O[C@H]5[C@H](O)[C@H]3O)[C@H]3COC(=O)[C@H]23)OCO4)cc(OC)c1O [Etoposide, etoposide]	1550 nM	18500 nM	5440 nM	10000 nM	782 nM	20000 nM	4800 nM	48000 nM	2900 nM	10400 nM	2890 nM	3060 nM	
CO[C@H]1C[C@@H]2CC[C@@H](C)[C@@](O)(O2)C(=O)C(=O)N2CCCC[C@H]2C(=O)O[C@H]([C@H](C)C[C@@H]2CC[C@@H](OC(=O)C(C)(CO)CO)[C@H](OC)C2)CC(=O)[C@H](C)/C=C(\C)[C@@H](O)[C@@H](OC)C(=O)[C@H](C)C[C@H](C)/C=C/C=C/C=C/1C [Temsirolimus, temsirolimus]	1000 nM	3500 nM	3500 nM	10000 nM			12000 nM	500 nM	150 nM		50000 nM	127 nM	3290 nM
CC[C@@]1(O)C(=O)OCc2c1cc1n(c2=O)Cc2cc3c(CN(C)C)c(O)ccc3nc2-1 [Topotecan, topotecan]	24 nM	750 nM	328 nM	4370 nM	800 nM	393 nM	166 nM	633 nM	808 nM	1000 nM	437 nM	300 nM	
